Test results: PubChem BioAssay AID330 (DTP/NCI, 2004)
Values joined by “and” are separate entries in the source; they are usually repeats but may differ in a detail not shown here. Equal values may be shown once. Inconclusive results and toxic doses are left out. Rule for the calls: active = survival T/C of 150% or more; inactive = T/C below 125% in these data.

Tested on: P388 leukemia ip, CD2F1 mice, survival T/C
Experiment: NCI In Vivo Anticancer Drug Screen. Data for tumor model P388 Leukemia (intraperitoneal) in CD2F1 (CDF1) mice
Conditions: endpoint: median survival time, higher = longer survival
Outline: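 Mice carrying the transplanted tumor received test compound or vehicle. Survival was recorded in each group, and the value is the treated-group measurement divided by that of the vehicle-treated control group.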

[1] = dose: 50.0 mg/kg/injection, schedule: Q01DX005 (ip), vehicle: saline with Tween-80
[2] = dose: 100.0 mg/kg/injection, schedule: Q01DX005 (ip), vehicle: saline with Tween-80
[3] = dose: 200.0 mg/kg/injection, schedule: Q01DX005 (ip), vehicle: saline with Tween-80
[4] = dose: 12.5 mg/kg/injection, schedule: Q01DX005 (ip), vehicle: Klucel (hydroxypropylcellulose) (HPC)
[5] = dose: 25.0 mg/kg/injection, schedule: Q01DX005 (ip), vehicle: Klucel (hydroxypropylcellulose) (HPC)
[6] = dose: 50.0 mg/kg/injection, schedule: Q01DX005 (ip), vehicle: Klucel (hydroxypropylcellulose) (HPC)
[7] = dose: 6.25 mg/kg/injection, schedule: Q01DX009 (ip), vehicle: saline with Tween-80
[8] = dose: 12.5 mg/kg/injection, schedule: Q01DX009 (ip), vehicle: saline with Tween-80
[9] = dose: 25.0 mg/kg/injection, schedule: Q01DX009 (ip), vehicle: saline with Tween-80
[10] = dose: 50.0 mg/kg/injection, schedule: Q01DX009 (ip), vehicle: saline
[11] = dose: 100.0 mg/kg/injection, schedule: Q01DX009 (ip), vehicle: saline
[12] = dose: 200.0 mg/kg/injection, schedule: Q01DX009 (ip), vehicle: saline
[13] = dose: 50.0 mg/kg/injection, schedule: Q01DX009 (ip), vehicle: saline with Tween-80
[14] = dose: 100.0 mg/kg/injection, schedule: Q01DX005 (ip), vehicle: Klucel (hydroxypropylcellulose) (HPC)
[15] = dose: 200.0 mg/kg/injection, schedule: Q01DX005 (ip), vehicle: Klucel (hydroxypropylcellulose) (HPC)

Measured: T/C

NC(=S)N/N=C/c1c(-c2ccc(Cl)cc2)nc2sccn12
inactive: dose: 100.0 mg/kg/injection, schedule: Q01DX001 (ip), vehicle: Klucel (hydroxypropylcellulose) (HPC) 96 % of control | dose: 200.0 mg/kg/injection, schedule: Q01DX001 (ip), vehicle: Klucel (hydroxypropylcellulose) (HPC) 95 % of control | dose: 400.0 mg/kg/injection, schedule: Q01DX001 (ip), vehicle: Klucel (hydroxypropylcellulose) (HPC) 96 % of control

C=CC1C(OC2OC(CO)C(O)C(O)C2O)OC=C(C(=O)OC)C1CC1CC(=O)CC(CC(=O)CCc2ccc(O)cc2)O1 (stereo not drawn)
inactive: dose: 18.75 mg/kg/injection, schedule: Q01DX005 (ip), vehicle: water 98 % of control | dose: 37.5 mg/kg/injection, schedule: Q01DX005 (ip), vehicle: water 101 % of control | dose: 75.0 mg/kg/injection, schedule: Q01DX005 (ip), vehicle: water 101 % of control | dose: 150.0 mg/kg/injection, schedule: Q01DX005 (ip), vehicle: water 101 % of control

CC(O)(CSc1ccccc1)CSc1ccccc1 (tested in a mixture with another compound)
inactive: dose: 25.0 mg/kg/injection, schedule: Q01DX005 (ip), vehicle: saline with Tween-80 102 % of control | [1] 100 % of control | [2] 98 % of control | [3] 100 % of control

C[C-]=NCCCl.C[C-]=O.[C-]#[O+].[C-]#[O+].[C-]#[O+].[C-]#[O+].[Re]
inactive: [4] 102 % of control | [5] 89 % of control | [6] 93 % of control and 98 % of control

CCOC(=O)C12C=CC(=O)NC1(OC)OC(C)(C)C2 (stereo not drawn)
inactive: dose: 20.0 mg/kg/injection, schedule: Q01DX001 (ip), vehicle: Klucel (hydroxypropylcellulose) (HPC) 95 % of control | dose: 40.0 mg/kg/injection, schedule: Q01DX001 (ip), vehicle: Klucel (hydroxypropylcellulose) (HPC) 93 % of control | dose: 80.0 mg/kg/injection, schedule: Q01DX001 (ip), vehicle: Klucel (hydroxypropylcellulose) (HPC) 89 % of control

CCCCCCCCCCCCCCCCCC(=O)NC1c2ccccc2Oc2ccccc21
inactive: [1] 87 % of control | [2] 90 % of control | [3] 92 % of control

C[Si]1(C)CC[Si](C)(C)OS(=O)(=O)O1
inactive: dose: 27.5 mg/kg/injection, schedule: Q01DX005 (ip), vehicle: Klucel (hydroxypropylcellulose) (HPC) 102 % of control | dose: 55.0 mg/kg/injection, schedule: Q01DX005 (ip), vehicle: Klucel (hydroxypropylcellulose) (HPC) 100 % of control

C=C(NC(C)=O)C(=O)O
inactive: [7] 103 % of control | [8] 101 % of control and 86 % of control | dose: 12.5 mg/kg/injection, schedule: Q04DX003 (ip), vehicle: saline with Tween-80 104 % of control | [9] 108 % of control | dose: 25.0 mg/kg/injection, schedule: Q04DX003 (ip), vehicle: saline with Tween-80 103 % of control | dose: 50.0 mg/kg/injection, schedule: Q04DX003 (ip), vehicle: saline with Tween-80 101 % of control | dose: 100.0 mg/kg/injection, schedule: Q01DX001 (ip), vehicle: saline with Tween-80 101 % of control

C(=C\c1csnn1)/c1ccc(/C=C/c2csnn2)cc1
inactive: dose: 60.0 mg/kg/injection, schedule: Q01DX005 (ip), vehicle: saline with Tween-80 100 % of control | dose: 120.0 mg/kg/injection, schedule: Q01DX005 (ip), vehicle: saline with Tween-80 100 % of control | dose: 240.0 mg/kg/injection, schedule: Q01DX005 (ip), vehicle: saline with Tween-80 100 % of control

O=CNCC(=O)O
inactive: [10] 101 % of control | [11] 97 % of control | [12] 99 % of control

O=C1CCCN1.O=C1CCCN1.[Br][Co][Br]
inactive: [9] 104 % of control | [13] 122 % of control

Cc1ncc([N+](=O)[O-])n1CCN=[N+]=[N-]
inactive: dose: 50.0 mg/kg/injection, schedule: Q04DX003 (ip), vehicle: saline 99 % of control and 100 % of control | dose: 100.0 mg/kg/injection, schedule: Q04DX003 (ip), vehicle: saline 101 % of control and 107 % of control | dose: 200.0 mg/kg/injection, schedule: Q04DX003 (ip), vehicle: saline 100 % of control and 112 % of control | dose: 400.0 mg/kg/injection, schedule: Q04DX003 (ip), vehicle: saline 100 % of control and 107 % of control

O=C(Nc1ccccc1)/C(N=Nc1ccc([N+](=O)[O-])cc1Cl)=N/Nc1ccccc1S(=O)(=O)O
inactive: [6] 102 % of control | [14] 101 % of control | [15] 91 % of control

Cn1cnc([N+](=O)[O-])c1N
inactive: [8] 106 % of control | [9] 119 % of control | [13] 103 % of control | dose: 100.0 mg/kg/injection, schedule: Q01DX009 (ip), vehicle: saline with Tween-80 106 % of control

CCCCCN(C)/N=N/c1nc[nH]c1C(N)=O
inactive: dose: 100.0 mg/kg/injection, schedule: Q04DX003 (ip), vehicle: saline with Tween-80 120 % of control | dose: 200.0 mg/kg/injection, schedule: Q04DX003 (ip), vehicle: saline with Tween-80 110 % of control | dose: 600.0 mg/kg/injection, schedule: Q04DX003 (ip), vehicle: saline with Tween-80 90 % of control

O=C1C2C3C4C5C(C2C5(Br)C32OCCO2)C14Br (stereo not drawn)
inactive: dose: 100.0 mg/kg/injection, schedule: Q04DX003 (ip), vehicle: Klucel (hydroxypropylcellulose) (HPC) 106 % of control | dose: 200.0 mg/kg/injection, schedule: Q04DX003 (ip), vehicle: Klucel (hydroxypropylcellulose) (HPC) 107 % of control | dose: 400.0 mg/kg/injection, schedule: Q04DX003 (ip), vehicle: Klucel (hydroxypropylcellulose) (HPC) 113 % of control

CSC(=S)N/N=C(\c1ccccc1)c1ccccn1
inactive: [7] 96 % of control | [8] 89 % of control and 97 % of control | [13] 92 % of control

CC1=CC(C/C(C)=C/COc2ccc3ccc(=O)oc3c2)OC1=O (stereo not drawn)
inactive: [4] 87 % of control | [5] 90 % of control | [6] 97 % of control

COc1ccccc1NC(=O)C1=C(C)NC(C)=C(C(=O)Nc2ccccc2OC)C1c1c(Cl)cccc1Cl
inactive: [1] 94 % of control | [2] 98 % of control | [3] 95 % of control

O=C(O)CCc1cc(Br)no1
inactive: [10] 101 % of control | [11] 93 % of control | [12] 93 % of control

CC(C)SC(=S)Nc1ccc(F)cc1
inactive: dose: 50.0 mg/kg/injection, schedule: Q01DX009 (ip), vehicle: suspension in saline 101 % of control | dose: 100.0 mg/kg/injection, schedule: Q01DX009 (ip), vehicle: suspension in saline 101 % of control | dose: 200.0 mg/kg/injection, schedule: Q01DX009 (ip), vehicle: suspension in saline 107 % of control

c1ccc(C2SC3=NCCCN3Cc3ccccc32)cc1 (stereo not drawn)
inactive: dose: 12.5 mg/kg/injection, schedule: Q01DX009 (ip), vehicle: saline 104 % of control | dose: 25.0 mg/kg/injection, schedule: Q01DX009 (ip), vehicle: saline 109 % of control | [10] 104 % of control and 97 % of control

Cc1nc(Nc2ccc(F)cc2)c2c(C)c[nH]c2n1
inactive: [6] 90 % of control | [14] 88 % of control | [15] 89 % of control

O=Nc1c2ccccc2c(NO)c2ccccc12
inactive: dose: 100.0 mg/kg/injection, schedule: Q04DX002 (ip), vehicle: saline with Tween-80 94 % of control | dose: 200.0 mg/kg/injection, schedule: Q04DX002 (ip), vehicle: saline with Tween-80 92 % of control | dose: 400.0 mg/kg/injection, schedule: Q04DX002 (ip), vehicle: saline with Tween-80 98 % of control
